{
  "source": "PubChem BioAssay (NCI)",
  "experiment_in_all_cases": "growth of human tumour cells (NCI), 48 h",
  "key": {"SK-OV-3 ovarian": {"system": "SK-OV-3 ovarian"}, "UO-31 renal": {"system": "UO-31 renal"}, "TK-10 renal": {"system": "TK-10 renal"}, "A498 renal": {"system": "A498 renal"}, "HOP-62 NSCLC": {"system": "HOP-62 NSCLC"}, "HCT-15 colon": {"system": "HCT-15 colon"}, "COLO 205 colon": {"system": "COLO 205 colon"}, "HT29 colon": {"system": "HT29 colon"}, "NCI/ADR-RES ovarian": {"system": "NCI/ADR-RES ovarian"}, "U251 CNS": {"system": "U251 CNS"}, "SK-MEL-28 melanoma": {"system": "SK-MEL-28 melanoma"}, "ACHN renal": {"system": "ACHN renal"}, "HOP-92 NSCLC": {"system": "HOP-92 NSCLC"}, "SN12C renal": {"system": "SN12C renal"}, "A549 NSCLC": {"system": "A549 NSCLC"}, "MDA-MB-435": {"system": "MDA-MB-435"}, "M14 melanoma": {"system": "M14 melanoma"}, "UACC-257 melanoma": {"system": "UACC-257 melanoma"}, "SF-539 CNS": {"system": "SF-539 CNS"}, "UACC-62 melanoma": {"system": "UACC-62 melanoma"}, "T-47D breast": {"system": "T-47D breast"}, "OVCAR-4 ovarian": {"system": "OVCAR-4 ovarian"}, "KM12 colon": {"system": "KM12 colon"}, "786-0 renal": {"system": "786-0 renal"}, "SF-295 CNS": {"system": "SF-295 CNS"}, "SF-268 CNS": {"system": "SF-268 CNS"}, "SK-MEL-5 melanoma": {"system": "SK-MEL-5 melanoma"}, "BT-549 breast": {"system": "BT-549 breast"}, "OVCAR-3 ovarian": {"system": "OVCAR-3 ovarian"}, "RXF 393 renal": {"system": "RXF 393 renal"}, "LOX IMVI melanoma": {"system": "LOX IMVI melanoma"}, "HS 578T breast": {"system": "HS 578T breast"}, "SNB-19 CNS": {"system": "SNB-19 CNS"}, "PC-3 prostate": {"system": "PC-3 prostate"}, "MOLT-4 leukemia": {"system": "MOLT-4 leukemia"}, "CCRF-CEM leukemia": {"system": "CCRF-CEM leukemia"}, "HCT-116 colon": {"system": "HCT-116 colon"}, "SNB-75 CNS": {"system": "SNB-75 CNS"}, "HCC-2998 colon": {"system": "HCC-2998 colon"}, "SK-MEL-2 melanoma": {"system": "SK-MEL-2 melanoma"}, "SW-620 colon": {"system": "SW-620 colon"}, "K-562 leukemia": {"system": "K-562 leukemia"}, "NCI-H522 lung": {"system": "NCI-H522 lung"}, "NCI-H460 lung": {"system": "NCI-H460 lung"}, "DU-145 prostate": {"system": "DU-145 prostate"}, "RPMI-8226 leukemia": {"system": "RPMI-8226 leukemia"}, "NCI-H226 lung": {"system": "NCI-H226 lung"}, "IGROV1 ovarian": {"system": "IGROV1 ovarian"}, "OVCAR-8 ovarian": {"system": "OVCAR-8 ovarian"}, "CAKI-1 renal": {"system": "CAKI-1 renal"}, "MALME-3M melanoma": {"system": "MALME-3M melanoma"}, "SR leukemia": {"system": "SR leukemia"}, "MCF7 breast": {"system": "MCF7 breast"}, "EKVX NSCLC": {"system": "EKVX NSCLC"}, "NCI-H23 lung": {"system": "NCI-H23 lung"}, "OVCAR-5 ovarian": {"system": "OVCAR-5 ovarian"}},
  "note": "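Briefly, cells in 96-well plates were exposed to five compound concentrations for 48 h, and endpoints were estimated by linear interpolation. Definition used: TGI = concentration required for complete inhibition of growth.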",
  "data": [
    {"smiles": "CC(CC=O)Nc1nn2c(=O)c3ccccc3nc2s1", "note": "(stereo unspecified)", "values": [
      {"measurement": "TGI", "setting": "SK-OV-3 ovarian", "value": "> 100", "unit": "µM"},
      {"measurement": "TGI", "setting": "UO-31 renal", "value": 48.1, "unit": "µM"},
      {"measurement": "TGI", "setting": "TK-10 renal", "value": "> 100", "unit": "µM"},
      {"measurement": "TGI", "setting": "A498 renal", "value": "> 100", "unit": "µM"},
      {"measurement": "TGI", "setting": "HOP-62 NSCLC", "value": "> 100", "unit": "µM"},
      {"measurement": "TGI", "setting": "HCT-15 colon", "value": "> 100", "unit": "µM"},
      {"measurement": "TGI", "setting": "COLO 205 colon", "value": "> 100", "unit": "µM"},
      {"measurement": "TGI", "setting": "HT29 colon", "value": "> 100", "unit": "µM"},
      {"measurement": "TGI", "setting": "NCI/ADR-RES ovarian", "value": "> 100", "unit": "µM"},
      {"measurement": "TGI", "setting": "U251 CNS", "value": "> 100", "unit": "µM"},
      {"measurement": "TGI", "setting": "SK-MEL-28 melanoma", "value": "> 100", "unit": "µM"},
      {"measurement": "TGI", "setting": "ACHN renal", "value": "> 100", "unit": "µM"},
      {"measurement": "TGI", "setting": "HOP-92 NSCLC", "value": "> 100", "unit": "µM"},
      {"measurement": "TGI", "setting": "SN12C renal", "value": "> 100", "unit": "µM"},
      {"measurement": "TGI", "setting": "A549 NSCLC", "value": "> 100", "unit": "µM"},
      {"measurement": "TGI", "setting": "MDA-MB-435", "value": "> 100", "unit": "µM"},
      {"measurement": "TGI", "setting": "M14 melanoma", "value": "> 100", "unit": "µM"},
      {"measurement": "TGI", "setting": "UACC-257 melanoma", "value": "> 100", "unit": "µM"},
      {"measurement": "TGI", "setting": "SF-539 CNS", "value": "> 100", "unit": "µM"},
      {"measurement": "TGI", "setting": "UACC-62 melanoma", "value": "> 100", "unit": "µM"},
      {"measurement": "TGI", "setting": "T-47D breast", "value": "> 100", "unit": "µM"},
      {"measurement": "TGI", "setting": "OVCAR-4 ovarian", "value": "> 100", "unit": "µM"},
      {"measurement": "TGI", "setting": "KM12 colon", "value": "> 100", "unit": "µM"},
      {"measurement": "TGI", "setting": "786-0 renal", "value": "> 100", "unit": "µM"},
      {"measurement": "TGI", "setting": "SF-295 CNS", "value": "> 100", "unit": "µM"},
      {"measurement": "TGI", "setting": "SF-268 CNS", "value": "> 100", "unit": "µM"},
      {"measurement": "TGI", "setting": "SK-MEL-5 melanoma", "value": "> 100", "unit": "µM"},
      {"measurement": "TGI", "setting": "BT-549 breast", "value": "> 100", "unit": "µM"},
      {"measurement": "TGI", "setting": "OVCAR-3 ovarian", "value": "> 100", "unit": "µM"},
      {"measurement": "TGI", "setting": "RXF 393 renal", "value": "> 100", "unit": "µM"},
      {"measurement": "TGI", "setting": "LOX IMVI melanoma", "value": "> 100", "unit": "µM"},
      {"measurement": "TGI", "setting": "HS 578T breast", "value": "> 100", "unit": "µM"},
      {"measurement": "TGI", "setting": "SNB-19 CNS", "value": "> 100", "unit": "µM"},
      {"measurement": "TGI", "setting": "PC-3 prostate", "value": "> 100", "unit": "µM"},
      {"measurement": "TGI", "setting": "MOLT-4 leukemia", "value": "> 100", "unit": "µM"},
      {"measurement": "TGI", "setting": "CCRF-CEM leukemia", "value": "> 100", "unit": "µM"},
      {"measurement": "TGI", "setting": "HCT-116 colon", "value": "> 100", "unit": "µM"},
      {"measurement": "TGI", "setting": "SNB-75 CNS", "value": "> 100", "unit": "µM"},
      {"measurement": "TGI", "setting": "HCC-2998 colon", "value": "> 100", "unit": "µM"},
      {"measurement": "TGI", "setting": "SK-MEL-2 melanoma", "value": "> 100", "unit": "µM"},
      {"measurement": "TGI", "setting": "SW-620 colon", "value": "> 100", "unit": "µM"},
      {"measurement": "TGI", "setting": "K-562 leukemia", "value": "> 100", "unit": "µM"},
      {"measurement": "TGI", "setting": "NCI-H522 lung", "value": "> 100", "unit": "µM"},
      {"measurement": "TGI", "setting": "NCI-H460 lung", "value": "> 100", "unit": "µM"},
      {"measurement": "TGI", "setting": "DU-145 prostate", "value": "> 100", "unit": "µM"},
      {"measurement": "TGI", "setting": "RPMI-8226 leukemia", "value": "> 100", "unit": "µM"},
      {"measurement": "TGI", "setting": "NCI-H226 lung", "value": "> 100", "unit": "µM"},
      {"measurement": "TGI", "setting": "IGROV1 ovarian", "value": "> 100", "unit": "µM"},
      {"measurement": "TGI", "setting": "OVCAR-8 ovarian", "value": "> 100", "unit": "µM"},
      {"measurement": "TGI", "setting": "CAKI-1 renal", "value": "> 100", "unit": "µM"},
      {"measurement": "TGI", "setting": "MALME-3M melanoma", "value": "> 100", "unit": "µM"},
      {"measurement": "TGI", "setting": "SR leukemia", "value": "> 100", "unit": "µM"},
      {"measurement": "TGI", "setting": "MCF7 breast", "value": "> 100", "unit": "µM"},
      {"measurement": "TGI", "setting": "EKVX NSCLC", "value": "> 100", "unit": "µM"},
      {"measurement": "TGI", "setting": "NCI-H23 lung", "value": "> 100", "unit": "µM"},
      {"measurement": "TGI", "setting": "OVCAR-5 ovarian", "value": "> 100", "unit": "µM"}
    ]}
  ]
}
